Experimental findings from ChEMBL document CHEMBL5512646, “Synthesis, kinase inhibition and anti-leukemic activities of diversely substituted indolopyrazolocarbazoles” (Eur J Med Chem, 2024) are described below.

Assay [1] has as its system MOLM-13. Put plainly: Cytotoxicity against human MOLM-13 cells assessed as induction of cell death incubated for 24 hrs by WST-1 assay. The note with it: MOLM-13, 24 h. Background: Tetrazolium dyes change colour on reduction, which living cells bring about.
Assay [2] deals with HCT-116. As to the kind of experiment: Cytotoxicity against human HCT-116 cells assessed as inhibition of cell growth incubated for 24 hrs by MTT assay. It counts as functional, cell-based. As to conditions: HCT-116, 24 h.
Assay [3] has as its target T1, Tyrosine-protein kinase JAK3 (Homo sapiens, UniProt P52333).
T1 sequence (P52333 whole entry): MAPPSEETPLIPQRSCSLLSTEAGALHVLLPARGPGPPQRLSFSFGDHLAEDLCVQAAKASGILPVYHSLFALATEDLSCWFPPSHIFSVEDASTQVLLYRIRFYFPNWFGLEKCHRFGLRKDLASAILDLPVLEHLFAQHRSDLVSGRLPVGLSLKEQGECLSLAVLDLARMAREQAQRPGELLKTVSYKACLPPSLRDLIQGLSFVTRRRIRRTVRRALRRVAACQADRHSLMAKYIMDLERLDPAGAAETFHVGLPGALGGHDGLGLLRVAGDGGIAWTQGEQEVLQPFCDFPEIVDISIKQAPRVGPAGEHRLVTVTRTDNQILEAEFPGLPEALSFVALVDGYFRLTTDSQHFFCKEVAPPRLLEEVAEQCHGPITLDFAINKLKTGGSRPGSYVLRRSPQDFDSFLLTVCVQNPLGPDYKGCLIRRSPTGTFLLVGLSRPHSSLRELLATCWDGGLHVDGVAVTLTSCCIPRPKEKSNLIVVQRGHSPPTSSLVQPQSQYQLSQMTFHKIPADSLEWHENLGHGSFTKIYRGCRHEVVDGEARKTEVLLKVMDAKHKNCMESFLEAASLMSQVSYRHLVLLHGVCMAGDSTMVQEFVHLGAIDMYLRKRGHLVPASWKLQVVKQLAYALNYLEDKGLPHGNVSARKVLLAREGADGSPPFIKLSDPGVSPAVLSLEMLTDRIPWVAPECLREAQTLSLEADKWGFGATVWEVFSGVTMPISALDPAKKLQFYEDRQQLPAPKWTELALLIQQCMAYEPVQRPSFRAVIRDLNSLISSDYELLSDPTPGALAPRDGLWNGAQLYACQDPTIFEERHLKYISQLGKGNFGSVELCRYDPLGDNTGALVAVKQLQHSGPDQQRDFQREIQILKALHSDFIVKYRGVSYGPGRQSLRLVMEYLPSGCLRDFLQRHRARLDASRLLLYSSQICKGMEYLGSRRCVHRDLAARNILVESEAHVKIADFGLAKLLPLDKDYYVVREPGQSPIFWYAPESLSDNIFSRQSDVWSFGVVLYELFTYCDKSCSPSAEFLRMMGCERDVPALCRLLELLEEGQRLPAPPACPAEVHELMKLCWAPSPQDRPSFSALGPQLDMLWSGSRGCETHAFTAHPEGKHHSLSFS
Put plainly: Inhibition of human JAK3 using MBP as substrate in presence of ATP.

The target in assay [4] is Serine/threonine-protein kinase N2 (Homo sapiens, UniProt Q16513). Put plainly: Inhibition of human PRK2 using ISDELMDATFADQEAKKK as substrate in presence of ATP.
Assay [5] deals with Serine/threonine-protein kinase pim-1 (Homo sapiens, UniProt P11309).
Description: Inhibition of PIM-1 (unknown origin)
For assay [6], the target named is MAP/microtubule affinity-regulating kinase 3 (Homo sapiens, UniProt P27448). As to the kind of experiment: Inhibition of human MARK3 using ATPKKLNRTLSVA as substrate in presence of ATP.
Assay [7] has as its target 5'-AMP-activated protein kinase catalytic subunit alpha-2 (Homo sapiens, UniProt P54646). Put plainly: Inhibition of human AMPK using HMRSAMSGLHLVKRR as substrate in presence of ATP.
The target of assay [8] is Glycogen synthase kinase-3 beta (Homo sapiens, UniProt P49841). Put plainly: Inhibition of human GSK3beta using Poly Glut Tyr as substrate in presence of ATP.
Assay [9] addresses Serine/threonine-protein kinase pim-2 (Homo sapiens, UniProt Q9P1W9). Put plainly: Inhibition of PIM-2 (unknown origin).

The structures appear in SMILES notation.

Sequence of Serine/threonine-protein kinase pim-2 (Q9P1W9 whole entry): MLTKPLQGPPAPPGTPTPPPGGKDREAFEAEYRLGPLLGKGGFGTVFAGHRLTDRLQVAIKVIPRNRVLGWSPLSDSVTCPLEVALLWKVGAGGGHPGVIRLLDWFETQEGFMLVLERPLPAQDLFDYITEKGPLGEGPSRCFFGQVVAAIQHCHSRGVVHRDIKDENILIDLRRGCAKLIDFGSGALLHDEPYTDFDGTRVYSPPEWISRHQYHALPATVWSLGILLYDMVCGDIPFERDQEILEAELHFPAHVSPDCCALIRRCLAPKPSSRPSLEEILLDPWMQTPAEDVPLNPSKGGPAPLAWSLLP
Sequence of Serine/threonine-protein kinase N2 (Q16513 whole entry): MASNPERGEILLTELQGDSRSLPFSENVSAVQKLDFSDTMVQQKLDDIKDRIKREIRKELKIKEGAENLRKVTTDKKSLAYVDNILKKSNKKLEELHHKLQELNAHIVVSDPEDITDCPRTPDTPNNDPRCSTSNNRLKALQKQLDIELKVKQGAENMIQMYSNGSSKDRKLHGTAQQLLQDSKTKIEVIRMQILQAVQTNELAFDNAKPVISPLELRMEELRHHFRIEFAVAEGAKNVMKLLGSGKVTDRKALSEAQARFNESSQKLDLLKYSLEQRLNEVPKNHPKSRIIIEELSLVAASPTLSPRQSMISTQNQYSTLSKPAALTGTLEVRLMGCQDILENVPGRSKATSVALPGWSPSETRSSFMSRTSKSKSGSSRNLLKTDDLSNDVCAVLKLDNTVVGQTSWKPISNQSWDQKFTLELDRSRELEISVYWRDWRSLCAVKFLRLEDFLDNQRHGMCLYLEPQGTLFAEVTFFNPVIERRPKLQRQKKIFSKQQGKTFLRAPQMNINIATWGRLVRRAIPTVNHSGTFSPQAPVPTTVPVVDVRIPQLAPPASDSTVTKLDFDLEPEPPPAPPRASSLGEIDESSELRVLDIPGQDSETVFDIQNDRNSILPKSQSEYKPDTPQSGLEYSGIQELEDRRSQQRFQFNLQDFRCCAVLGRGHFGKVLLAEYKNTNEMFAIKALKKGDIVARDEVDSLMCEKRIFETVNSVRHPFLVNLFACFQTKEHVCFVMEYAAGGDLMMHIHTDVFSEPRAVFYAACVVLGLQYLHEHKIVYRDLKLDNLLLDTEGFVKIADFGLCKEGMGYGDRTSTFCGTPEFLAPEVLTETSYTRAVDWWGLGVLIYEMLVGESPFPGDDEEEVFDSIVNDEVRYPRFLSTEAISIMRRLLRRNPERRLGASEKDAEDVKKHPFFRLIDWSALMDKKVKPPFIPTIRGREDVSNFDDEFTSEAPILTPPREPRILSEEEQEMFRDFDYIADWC
Sequence of Serine/threonine-protein kinase pim-1 (P11309 whole entry): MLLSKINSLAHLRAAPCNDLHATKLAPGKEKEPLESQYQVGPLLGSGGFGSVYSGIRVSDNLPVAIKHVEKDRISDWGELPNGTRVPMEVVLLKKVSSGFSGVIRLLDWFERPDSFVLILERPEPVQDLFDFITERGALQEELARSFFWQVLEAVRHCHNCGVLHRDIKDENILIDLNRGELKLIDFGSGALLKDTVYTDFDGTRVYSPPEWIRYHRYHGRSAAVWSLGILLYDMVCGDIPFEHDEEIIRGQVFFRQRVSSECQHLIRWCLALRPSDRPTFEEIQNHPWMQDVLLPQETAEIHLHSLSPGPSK
Sequence of MAP/microtubule affinity-regulating kinase 3 (P27448 whole entry): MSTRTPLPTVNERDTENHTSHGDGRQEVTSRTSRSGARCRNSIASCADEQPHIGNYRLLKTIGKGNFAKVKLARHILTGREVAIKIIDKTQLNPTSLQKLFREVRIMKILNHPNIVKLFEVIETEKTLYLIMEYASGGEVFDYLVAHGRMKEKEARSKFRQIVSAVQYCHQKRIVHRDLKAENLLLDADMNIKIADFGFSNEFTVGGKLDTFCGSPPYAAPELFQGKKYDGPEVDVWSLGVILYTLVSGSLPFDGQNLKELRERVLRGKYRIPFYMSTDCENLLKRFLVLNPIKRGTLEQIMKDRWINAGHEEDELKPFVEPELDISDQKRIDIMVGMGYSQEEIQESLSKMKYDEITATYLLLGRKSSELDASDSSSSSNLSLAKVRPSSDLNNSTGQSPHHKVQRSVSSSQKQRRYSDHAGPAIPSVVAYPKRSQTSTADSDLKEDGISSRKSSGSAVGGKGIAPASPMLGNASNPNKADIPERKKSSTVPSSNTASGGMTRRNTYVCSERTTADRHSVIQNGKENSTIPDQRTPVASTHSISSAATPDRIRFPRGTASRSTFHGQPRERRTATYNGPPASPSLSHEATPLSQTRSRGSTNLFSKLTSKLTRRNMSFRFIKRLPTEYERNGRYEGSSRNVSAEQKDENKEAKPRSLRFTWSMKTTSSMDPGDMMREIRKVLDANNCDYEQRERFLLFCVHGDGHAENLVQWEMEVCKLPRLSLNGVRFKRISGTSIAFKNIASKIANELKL
Sequence of 5'-AMP-activated protein kinase catalytic subunit alpha-2 (P54646 whole entry): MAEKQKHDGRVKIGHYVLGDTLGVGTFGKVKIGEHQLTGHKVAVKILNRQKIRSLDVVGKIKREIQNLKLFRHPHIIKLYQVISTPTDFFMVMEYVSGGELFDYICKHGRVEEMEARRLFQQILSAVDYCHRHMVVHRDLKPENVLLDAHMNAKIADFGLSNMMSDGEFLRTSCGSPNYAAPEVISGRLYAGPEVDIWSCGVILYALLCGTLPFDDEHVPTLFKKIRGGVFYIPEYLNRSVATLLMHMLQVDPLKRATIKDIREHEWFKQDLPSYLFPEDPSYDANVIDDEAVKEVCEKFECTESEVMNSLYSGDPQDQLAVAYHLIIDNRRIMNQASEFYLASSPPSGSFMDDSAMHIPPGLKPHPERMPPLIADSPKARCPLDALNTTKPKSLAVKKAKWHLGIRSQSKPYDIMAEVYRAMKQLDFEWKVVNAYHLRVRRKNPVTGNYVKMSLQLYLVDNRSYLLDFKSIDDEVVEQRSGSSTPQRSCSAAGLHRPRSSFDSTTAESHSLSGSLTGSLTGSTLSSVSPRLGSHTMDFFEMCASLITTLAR
Sequence of Glycogen synthase kinase-3 beta (P49841 whole entry): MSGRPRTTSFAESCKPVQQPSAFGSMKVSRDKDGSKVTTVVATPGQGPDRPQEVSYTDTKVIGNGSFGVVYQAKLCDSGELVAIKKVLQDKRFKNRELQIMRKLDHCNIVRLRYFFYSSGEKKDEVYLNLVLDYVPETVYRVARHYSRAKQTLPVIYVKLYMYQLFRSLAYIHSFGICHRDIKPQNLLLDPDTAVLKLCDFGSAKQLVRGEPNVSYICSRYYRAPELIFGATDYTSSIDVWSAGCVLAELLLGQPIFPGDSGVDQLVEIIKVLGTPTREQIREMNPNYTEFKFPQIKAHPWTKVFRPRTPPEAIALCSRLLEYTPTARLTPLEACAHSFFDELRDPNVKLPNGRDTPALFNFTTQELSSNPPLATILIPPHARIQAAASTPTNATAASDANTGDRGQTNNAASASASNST

With `NCCCCn1c2ccccc2c2c3[nH]ncc3c3c4ccccc4[nH]c3c21`, the EC50 in [1] is 2.7 µM.

Regarding `CCCCCn1c2ccccc2c2c3[nH]ncc3c3c4ccccc4[nH]c3c21`, in assay [1], the EC50 worked out at 15 µM.

As to `CCN(CC)CCCn1c2ccccc2c2c3[nH]ncc3c3c4ccccc4[nH]c3c21`, in [1], the EC50 is > 4 µM.

As to `OC[C@H]1O[C@@H](n2c3ccccc3c3c4cn[nH]c4c4c5ccccc5[nH]c4c32)[C@H](O)[C@@H](O)[C@@H]1O`, in [2], the IC50 is 11 µM.

Regarding `CCCCn1c2ccccc2c2c3[nH]ncc3c3c4ccccc4[nH]c3c21`, in [1], the concentration for a half-maximal effect (EC50) was > 5 µM.

For the compound `CNCCCn1c2ccccc2c2c3cn[nH]c3c3c4ccccc4[nH]c3c21`, the IC50 in assay [3] turned out to be 0.041 µM; in [4], 0.009 µM; in assay [5], 0.045 µM; in assay [6], 0.024 µM; in assay [7] it was 0.0144 µM; in assay [8] it was 0.128 µM. This compound gave an IC50 in assay [9] of 0.316 µM.

With `CN(C)CCCn1c2ccccc2c2c3[nH]ncc3c3c4ccccc4[nH]c3c21`, the EC50 in [1] amounted to 3.8 µM.

For `OCCCCn1c2ccccc2c2c3[nH]ncc3c3c4ccccc4[nH]c3c21`, the EC50 in assay [1] amounted to 4.1 µM.

`CCN(CC)CCCCn1c2ccccc2c2c3[nH]ncc3c3c4ccccc4[nH]c3c21`: in [1], the EC50 came to 4.3 µM.

In the case of `NCCCn1c2ccccc2c2c3[nH]ncc3c3c4ccccc4[nH]c3c21`, the EC50 in assay [1] was > 40 µM.

On to `OC[C@H]1O[C@@H](n2c3ccccc3c3c4[nH]ncc4c4c5ccccc5[nH]c4c32)[C@H](O)[C@@H](O)[C@@H]1O`, for which the IC50 in assay [2] worked out at 12 µM.

For `CCCCCn1c2ccccc2c2c3cn[nH]c3c3c4ccccc4[nH]c3c21`, in assay [1], the EC50 was > 5 µM.

As a reminder, the EC50 is the concentration needed to bring the measured effect to its halfway point. By IC50 is commonly meant the concentration that gives 50% inhibition.
